This is an account of results in patent publication US9051325B2, “Bicyclic [5,6] imidazo pyrimodone compounds for use in the treatment of diseases or conditions mediated by Lp-PLA2” (GlaxoSmithKline Intellectual Property Development Limited, priority 2013, dated 2015).

Where only a bound is given, the exact number is not on record here.

One experiment addresses T1, recombinant human Lp-PLA2 (Homo sapiens, UniProt Q13093).
T1 sequence (Q13093 22-441): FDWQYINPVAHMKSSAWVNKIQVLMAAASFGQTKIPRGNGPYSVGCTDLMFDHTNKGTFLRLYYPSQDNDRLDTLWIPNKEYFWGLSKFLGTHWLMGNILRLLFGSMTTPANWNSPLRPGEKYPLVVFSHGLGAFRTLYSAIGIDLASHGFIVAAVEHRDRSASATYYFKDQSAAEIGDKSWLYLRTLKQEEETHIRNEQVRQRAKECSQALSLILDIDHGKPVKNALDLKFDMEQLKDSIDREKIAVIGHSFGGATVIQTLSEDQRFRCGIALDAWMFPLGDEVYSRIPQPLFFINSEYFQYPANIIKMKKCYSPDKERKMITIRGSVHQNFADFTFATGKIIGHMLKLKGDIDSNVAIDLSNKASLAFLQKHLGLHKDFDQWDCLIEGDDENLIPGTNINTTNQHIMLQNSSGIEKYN
As to the kind of experiment: Recombinant human Lp-PLA2 assay (rhLp-PLA2, PED6 assay). The experiment is classed as biochemical. The settings on record: lower bounds; read-out: pIC50 values in the PED6 assay (converted). From the text:
(1) Recombinant Human Lp-PLA2 Assay (rhLp-PLA2) (Also Referred to as “PED6” Assay)
N-((6-(2,4-dinitrophenyl)amino)-hexanoyl)-2-(4,4-difluoro-5,7-dimethyl-4-bora-3a,4a-diaza-s-indacene-3-pentanoyl)-1-hexadecanoyl-sn-glycero-3-phosphoethanolamine, triethylammonium salt (PED6) is a commercially available fluorescently-labeled phospholipid, which is commercially available from Invitrogene and Molecular Probes. There is a quenching […] and a Bodipy fluorescein (FL) group in the sn2 position. Upon cleavage with Lp-PLA2, the Bodipy FL group is liberated and then may result in an increase in fluorescence. Inhibitors of Lp-PLA2 therefore prevent this cleavage and no fluorescent increase is observed.
The PED6 assay was run as an unquenched 10 μL assay. The source plate containing the compounds to be tested was prepared by making 1:3 (by volume) serial dilution of the compounds within DMSO on 384-well microplate. Then, 0.01 μL of the compounds on compound source plate were transferred into 384 well Greiner 784076 (black) plates using ECHO liquid dispenser. 5 μL of recombinant human Lp-PLA2 enzyme (4 nM (or […]) rhLp-PLA2 in assay buffer of 50 mM HEPES, pH 7.4, 150 mM NaCl, 1 mM CHAPS) was added to each well of the plate. Plates were centrifuged for 10 sec at 500 rpm. After 30 minutes preincubation, 5 μL of substrate ([…] PED6 [from 5 mM DMSO stock] in assay buffer of 50 mM HEPES, pH 7.4, 150 mM NaCl, 1 mM CHAPS) was added to 384 well Greiner 784076 (black) plates. Plates were centrifuged for 10 sec at 500 rpm. The plate was covered to protect it from light and incubated for 20 min at room temperature. The plates were read for fluorescence intensity at ex: 480/em: 540 using ViewLux microplate imager for Envision spectrofluoroimeters pIC50 data, curve and QC analysis was conducted by using XL fit module in Excel.
Consider `N#Cc1cc(COc2cc3n(c(=O)n2)CCN3C2CC2)ccc1Oc1ccc(F)c(F)c1` [Example E118, 5-(((1-cyclopropyl-5-oxo-1,2,3,5-tetrahydroimidazo[1,2-c]pyrimidin-7-yl)oxy)methyl)-2-(3,4-difluorophenoxy)benzonitrile], for which the IC50 was at most 10 nM.

On to `C[C@H]1Cn2c(cc(OCc3ccc(Oc4ccc(F)cc4)c(C#N)c3)nc2=O)N1C` [Example E57, (S)-5-(((1,2-dimethyl-5-oxo-1,2,3,5-tetrahydroimidazo[1,2-c]pyrimidin-7-yl)oxy)methyl)-2-(4-fluorophenoxy)benzonitrile], for which the IC50 was at most 1 nM.

For the compound `CN1c2cc(OCc3cccc(Cl)c3)nc(=O)n2CC1(C)C` [Example E21, 7-((3-chlorobenzyl)oxy)-1,2,2-trimethyl-2,3-dihydroimidazo[1,2-c]pyrimidin-5(1H)-one], the IC50 was at most 10 nM.

Turning to `C[C@H]1Cn2c(cc(OCc3ccc(Oc4ccc(C(F)(F)F)nc4)c(F)c3)nc2=O)N1` [Example E62, (S)-7-((3-fluoro-4-((6-(trifluoromethyl)pyridin-3-yl)oxy)benzyl)oxy)-2-methyl-2,3-dihydroimidazo[1,2-c]pyrimidin-5(1H)-one], the IC50 was at most 1 nM.

On to `C[C@H]1Cn2c(cc(OCc3ccc(Oc4cncc(C#N)c4)c(F)c3)nc2=O)N1C` [Example E24, (S)-5-(4-(((1,2-dimethyl-5-oxo-1,2,3,5-tetrahydroimidazo[1,2-c]pyrimidin-7-yl)ox-y)methyl)-2-fluorophenoxy)nicotinonitrile], for which the IC50 is at most 10 nM.

`C[C@H]1Cn2c(cc(OCc3ccc(Oc4ccc(C(F)(F)F)nc4)c(F)c3)nc2=O)N1C` [Example E6, (S)-7-((3-fluoro-4-((6-(trifluoromethyl)pyridin-3-yl)oxy)benzyl)oxy)-1,2-dimethyl-2,3-dihydroimidazo[1,2-c]pyrimidin-5(1H)-one]: the IC50 was at most 1 nM.

Consider `O=c1nc(OCc2ccc(Oc3ccc(Cl)c(C(F)(F)F)c3)cc2)cc2n1CCN2C1CC1` [Example E17, 7-((4-(4-chloro-3-(trifluoromethyl)phenoxy)benzyl)oxy)-1-cyclopropyl-2,3-dihydroimidazo[1,2-c]pyrimidin-5(1H)-one], for which the IC50 is at most 10 nM.

Consider `CN1c2cc(OCc3ccc(Cl)c(F)c3)nc(=O)n2CC1(C)C` [Example E36, 7-((4-chloro-3-fluorobenzyl)oxy)-1,2,2-trimethyl-2,3-dihydroimidazo[1,2-c]pyrimidin-5(1H)-one], for which the IC50 is at most 10 nM.

On to `C[C@H]1Cn2c(cc(OCc3ccc(Oc4cccc(F)c4)c(F)c3)nc2=O)N1C` [Example E27, (S)-7-((3-fluoro-4-(3-fluorophenoxy)benzyl)oxy)-1,2-dimethyl-2,3-dihydroimidazo-[1,2-c]pyrimidin-5(1H)-one], for which the IC50 was at most 10 nM.

`[2H]C([2H])(Oc1cc2n(c(=O)n1)C[C@H](C)N2C)c1ccc(F)c(F)c1` [Example E22, (S)-7-(dideutero(3,4-difluorophenyl)methoxy)-1,2-dimethyl-2,3-dihydroimidazo[1,2-c]pyrimidin-5(1H)-one]: the IC50 is at most 10 nM.

As for `[2H]C([2H])(Oc1cc2n(c(=O)n1)C[C@H](C)N2C)c1cc(F)c(F)c(F)c1` [Example E86, (S)-7-(dideutero(3,4,5-trifluorophenyl)methoxy)-1,2-dimethyl-2,3-dihydroimidazo[1,2-c]pyrimidin-5(1H)-one], the IC50 is at most 10 nM.

Regarding `C[C@H]1Cn2c(cc(OCc3ccc(Oc4cccc(F)c4)c(F)c3)nc2=O)N1` [Example E28, (S)-7-((3-fluoro-4-(3-fluorophenoxy)benzyl)oxy)-2-methyl-2,3-dihydroimidazo[1,2-c]pyrimidin-5(1H)-one], the IC50 was at most 10 nM.

Turning to `C[C@H]1Cn2c(cc(OCc3ccc(F)c(F)c3)nc2=O)N1` [Example E9, (S)-7-((3,4-difluorobenzyl)oxy)-2-methyl-2,3-dihydroimidazo[1,2-c]pyrimidin-5(1H)-one], the IC50 is at most 10 nM.

As to `C[C@H]1Cn2c(cc(OCc3ccc(Oc4ccc(F)cc4)c(F)c3)nc2=O)N1` [Example E130, (S)-7-((3-fluoro-4-(4-fluorophenoxy)benzyl)oxy)-2-methyl-2,3-dihydroimidazo[1,2c]pyrimidin-5(1H)-one], the IC50 was at most 10 nM.

For the compound `C[C@H]1Cn2c(cc(OCc3ccc(Oc4ccc(F)cc4)c(F)c3)nc2=O)N1C` [Example E94, (S)-7-((3-fluoro-4-(4-fluorophenoxy)benzyl)oxy)-1,2-dimethyl-2,3-dihydroimidazo[1,2-c]pyrimidin-5(1H)-one], the IC50 is at most 10 nM.

`CN1c2cc(OCc3cc(F)ccc3F)nc(=O)n2CC1(C)C` [Example E92, 7-((2,5-difluorobenzyl)oxy)-1,2,2-trimethyl-2,3-dihydroimidazo[1,2-c]pyrimidin-5(1H)-one]: the IC50 was at most 10 nM.

`CN1c2cc(OCc3cc(F)cc(Cl)c3)nc(=O)n2CC1(C)C` [Example E125, 7-((3-chloro-5-fluorobenzyl)oxy)-1,2,2-trimethyl-2,3-dihydroimidazo[1,2-c]pyrimidin-5(1H)-one]: the IC50 was at most 10 nM.

On to `C[C@H]1Cn2c(cc(OCc3cc(F)c(Oc4cccc(F)c4)c(F)c3)nc2=O)N1C` [Example E76, (S)-7-((3,5-difluoro-4-(3-fluorophenoxy)benzyl)oxy)-1,2-dimethyl-2,3-dihydroimidazo[1,2-c]pyrimidin-5(1H)-one], for which the IC50 is at most 1 nM.

In the case of `C[C@H]1Cn2c(cc(OCc3cc(F)c(Oc4ccc(F)c(F)c4)c(F)c3)nc2=O)N1C` [Example E126, (S)-7-((4-(3,4-difluorophenoxy)-3,5-difluorobenzyl)oxy)-1,2-dimethyl-2,3-dihydroimidazo[1,2-c]pyrimidin-5(1H)-one], the IC50 is at most 1 nM.

In a further experiment the target is T2, Lp-PLA2 in human plasma (Homo sapiens, UniProt Q13093).
T2 construct: from tissue; host or cells: pooled human plasma
T2 sequence (Q13093 22-441): T1 sequence (Q13093 22-441)
The experiment in a line: Lp-PLA2 human plasma assay (Thio-PAF assay). The experiment is classed as biochemical. The settings on record: pooled human plasma; lower bounds; read-out: pIC50 values in the thio-PAF assay (converted). From the text: (3) Lipoprotein-Associated Phospholipase A2 (Lp-PLA2) Human Plasma Assay (Also Referred to as “Thio-PAF assay”)
The human plasma assay utilizes a thioester analog of PAF (phosphatidylcholine), where hydrolysis yields to the formation of a phospholipid containing a free thiol group. The amount of thiol is quantitated continuously by reacting with CPM (7-diethylamino-3-(4′-maleimidylphenyl)-4-methylcoumarin), a maleimide which increases in fluoresence after Michael addition of thiols. This assay may detect the activity of Lp-PLA2 in human plasma, as determined by specific inhibition by Lp-PLA2 inhibitors.
The thio-PAF assay was run as a quenched 15 μL assay. Compounds source plate was prepared by making 1:3 (by volume) serial dilution of the compounds into pure DMSO on 384-well microplate. 0.01 μL of compounds on compound source plate were transferred to 384 well Greiner 784076 (black) low-volume plates by ECHO liquid dispenser. 8 μL pooled human plasma, which was previously aliquoted and frozen, was added. Plates were centrifuged for 10 sec at 500 rpm. After 30 minutes preincubation, 2 μL of substrate solution comprising 2.5 mM 2-thio-PAF [from ethanol stock], 32 μM CPM [from a DMSO stock] and 3.2 mM NEM (N-ethylmaleimide) [made fresh daily in DMSO] in assay buffer of 50 mM HEPES, pH 7.4, 150 mM NaCl, 1 mM CHAPS was added to 384 well Greiner 784076 (black) low-volume plates by BRAVO liquid handling station. After 2 mins, reaction was quenched with 5 μL of 5% aqueous trifluoroacetic acid (TFA). Plates were covered to protect from light and incubated for 40 min at room temperature. Plates were read at ex: 380/em: 485 using-Envision microplate reader. PIC50 data, curve and QC analysis were conducted by using XLFit module in Excel.
As to `C[C@H]1Cn2c(cc(OCc3cc(F)cc(F)c3)nc2=O)N1` [Example E85, (S)-7-((3,5-difluorobenzyl)oxy)-2-methyl-2,3-dihydroimidazo[1,2-c]pyrimidin-5(1H)-one], the IC50 is at most 100 nM.

Consider `C[C@@H]1Cn2c(cc(OCc3cccc(C#N)c3)nc2=O)N1C` [Example E33, (R)-3-(((1,2-dimethyl-5-oxo-1,2,3,5-tetrahydroimidazo[1,2-c]pyrimidin-7-yl)oxy)methyl)benzonitrile], for which the IC50 is at most 100 nM.

Regarding `C[C@H]1Cn2c(cc(OCc3cccc(C#N)c3)nc2=O)N1C` [Example E72, (S)-3-(((1,2-dimethyl-5-oxo-1,2,3,5-tetrahydroimidazo[1,2-c]pyrimidin-7-yl)oxy)methyl)benzonitrile], the IC50 was at most 100 nM.

On to `C[C@H]1Cn2c(cc(OCc3cccc(C#N)c3)nc2=O)N1` [Example E109, (S)-3-(((2-methyl-5-oxo-1,2,3,5-tetrahydroimidazo[1,2-c]pyrimidin-7-yl)oxy)methyl)benzonitrile], for which the IC50 was at most 100 nM.
